According to patent publication US9867923B2, “Reducing soluble urokinase receptor in the circulation” (University of Miami, priority 2011, dated 2018):

Legend:
circulating suPAR [1] = assay: Serum suPAR in FSGS-CT cohort by treatment arm; type: in vivo, human; details: for change in serum suPAR level from baseline to 26 weeks: FSGS-CT patients, MMF arm is MMF/dexamethasone
Protocol: (§1) To explore the effect of treatment on suPAR levels in the circulation, samples were analyzed in patients who were randomly assigned to either the CSA or MMF/dexamethasone arm of the trial. At baseline, there was no difference between the two treatment arms in age at sampling, age at disease onset, gender, race, proteinuria, serum albumin, serum creatinine, or eGFR (FIG. 7) as well as circulating suPAR levels by univariate analysis. […] When examining the alteration from baseline to 26 weeks, suPAR level was increased in CSA arm, but decreased in MMF arm and the changes in suPAR levels between the two arms were significant (P<0.05).
FSGS-CT is a randomized controlled study that compared the efficacy of cyclosporine (CSA) to the combination of mycophenolate mofetil (MMF) and dexamethasone. Key inclusion criteria were age 2-40 years, eGFR>40 ml/min per 1.73 m^2, biopsy-proven FSGS, and resistance to corticosteroid therapy. Exclusion criteria included secondary FSGS, obesity, or prior experimental therapy. All subjects received lisinopril or losartan in those who were intolerant of angiotensin converting enzyme inhibitor. Subjects were treated for 52 weeks. The primary outcome was normalization of proteinuria defined as a urine protein:creatinine ratio (Up/c)<0.2 in a first morning urine sample after 52 weeks of active treatment with the study medication(s). The main secondary outcome was based on the level of proteinuria at 78 weeks, six months after discontinuation of the study drugs. Subjects were seen 11 times during the treatment period and, at each visit, blood pressure was measured and blood and urine were obtained to determine serum creatinine, eGFR, albumin, cholesterol concentration, and proteinuria (Gipson et al., Kidney Int'l 80:868-878, 2011). The serum samples collected at baseline (W01) and 26 weeks (W26) on treatment (n=35 in each arm) were retrieved from the NIDDK Biorepository for suPAR measurement.
(§2) The measurement of serum suPAR was performed using a Quantikine human uPAR immunoassay kit (R&D Systems).

[2] = Proteinuria (Up/c) and serum creatinine in FSGS-CT cohort by treatment arm; type: in vivo, human
Protocol: as §1
FSGS-CT is a randomized controlled study that compared the efficacy of cyclosporine (CSA) to the combination of mycophenolate mofetil (MMF) and dexamethasone. Key inclusion criteria were age 2-40 years, eGFR>40 ml/min per 1.73 m^2, biopsy-proven FSGS, and resistance to corticosteroid therapy. Exclusion criteria included secondary FSGS, obesity, or prior experimental therapy. […] Subjects were seen 11 times during the treatment period and, at each visit, blood pressure was measured and blood and urine were obtained to determine serum creatinine, eGFR, albumin, cholesterol concentration, and proteinuria (Gipson et al., Kidney Int'l 80:868-878, 2011). […]

circulating suPAR [3] = assay: Circulating suPAR in PodoNet cohort by medication; type: in vivo, human; details: medication at time of blood sampling
Source text: In contrast to FSGS-CT, where patients were randomly assigned to either CSA or MMF therapy, treatment in PodoNet was at the discretion of the attending physicians. For the purpose of this analysis, patients were grouped according to the medication they received at the time of blood sampling: MMF or a calcineurin inhibitor. […] Overall, there was no significant difference between the two groups based on their demographic features or laboratory measurements (e.g., proteinuria, serum albumin, eGFR, and serum creatinine).
PodoNet is a consortium for clinical, genetic, and experimental study of steroid-resistant nephrotic syndrome (SRNS). The inclusion criteria are children (age 0-18 years old) with SRNS based on management protocols at the participating medical centers and adults with familial SRNS. Patients who were included into this study had biopsy proven FSGS (n=94). The treatment of subjects was clinically determined and managed by their attending physician.
as §2

[4] = cited from earlier work
[5] = Retrospective study of recurrent or de novo FSGS after renal transplantation: renal parameters pre-post treatment; type: in vivo, human; details: for Mean Foot Process Effacement, Mean Post ± SD / Proteinuria, Mean Post ± SD / Serum Creatinine, Mean Post ± SD: post-treatment; for Mean Foot Process Effacement, Mean Pre ± SD / Proteinuria, Mean Pre ± SD / Serum Creatinine, Mean Pre ± SD: pre-treatment
Protocol: Treatment with plasmapheresis (PXP) started at the time of FSGS recurrence or de novo manifesting by the onset or worsening of proteinuria. Subjects completed a median of 21 plasmapheresis sessions (IQR: 10-23). Twelve subjects were refractory to plasmapheresis and received adjunctive rituximab infusion. Eight (32%) subjects had complete remission, and an additional 12 (48%) individuals achieved partial remission. With treatment (Table 5), the overall mean serum creatinine improved from 3.1 mg/dl±2.3 mg/dl to 2.1 mg/dl±1.2 mg/dl (P=0.07), and the mean eGFR improved from 35.6 ml/min±19.4 ml/min to 46.0 ml/min±24.3 ml/min per 1.73 m^2 (P=0.01). Additionally, among responders the serum creatinine declined further from 3.1 mg/dl±2.5 mg/dl to 1.9 mg/dl±0.6 mg/dl (P=0.48).
We conducted a retrospective observational study of all adult renal transplant recipients who underwent renal transplantation between Jan. 1, 2003 to Dec. 31, 2011, and developed recurrent or de novo FSGS after kidney transplantation at a single tertiary hospital. We identified 105 renal transplant recipients aged 18 years and older. Ninety-three had native kidney biopsy-proven FSGS; 12 having a probable FSGS diagnosis. Twenty-five individuals developed de novo FSGS (n=4) and recurrent FSGS (n=21) following renal transplantation. Recurrent FSGS was defined by the presence of proteinuria (more than 1 g/24 hours) in individuals who were anuric prior to renal transplantation ([…]) or worsening proteinuria among those who were not anuric prior to renal transplantation (n=15). De novo FSGS was defined as the new onset of proteinuria following renal transplantation in a recipient whose primary cause of ESRD was not attributed to FSGS. The diagnosis was confirmed by the presence of podocyte foot process effacement on the allograft biopsy obtained prior to or within 14 days of treatment commencement. The Johns Hopkins University School of Medicine Institutional Review Board approved this study.
Socio-demographic and clinical data were abstracted from patient medical records using double data entry from the time of renal transplantation to three years following renal transplantation or the last available clinical follow-up. Donor clinical characteristics collected included donor vital status, relatedness to the recipient, and ABO-compatibility with recipient. Recipient clinical characteristics included age at FSGS diagnosis, primary cause of ESRD, number of prior renal transplantations, duration among those receiving dialysis, serum creatinine and proteinuria defined by urine protein-to-creatinine ratio. Glomerular filtration rate (eGFR) was estimated using the CKD-Epi equation which adjusts for age, gender, and race (Levey et al., Ann. Intern. Med. 150:604-612, 2009). Recipients were treated with plasmapheresis. Those with persistently significant proteinuria were also given one or two rituximab infusions. Complete response was defined by a decrease in proteinuria to below 1 g/g upon completion of the treatment course and/or on the last available quantification of proteinuria. Partial response to therapy was defined as a decline in proteinuria at the end of treatment by 50% from the peak proteinuria level, but with proteinuria remaining 1 g/g or greater at the end of treatment. Renal histopathology was assessed by a renal pathologist using light microscopy, immunofluorescence and electron microscopy. The degree of podocyte foot process effacement was based upon biopsy reports as well as secondary assessments of the electron microscopy by a second renal pathologist blinded to the original biopsy report and the recipient's outcome. These two assessments were then averaged to obtain the mean podocyte foot process effacement, which was categorized as <25% (mild), 25%-74% (moderate), and 75% or greater (severe). Baseline electron microscopy results were obtained from renal biopsies performed prior or shortly after the initiation of therapy. […]

## COc1c(C)c2c(c(O)c1C/C=C(\C)CCC(=O)OCCN1CCOCC1)C(=O)OC2 [MMF, mycophenolate mofetil]
Circulating suPAR [1]
  change in serum suPAR level from baseline to 26 weeks: decreased
Circulating suPAR [1]; listed as mycophenolate mofetil
  change in serum suPAR level from baseline to 26 weeks: decreased significantly
Circulating suPAR [1]; FSGS-CT, MMF-treated patients, mean ± SEM (±264), P<0.01
  serum suPAR level after treatment: 4113 pg/mL
Circulating suPAR [1]; FSGS-CT, MMF-treated patients, mean ± SEM (±292)
  serum suPAR level before treatment: 5064 pg/mL
[2]; P<0.001
  decrease in serum creatinine from baseline to 26 weeks, MMF arm compared to CSA arm: significantly greater decrease
[2]; P<0.05
  decrease in Up/c from baseline to 26 weeks, MMF arm compared to CSA arm: significantly greater decrease
Circulating suPAR [3]
  circulating suPAR level, patients who received the medication versus those who did not: significantly lower

## O=C[C@H](O)[C@@H](O)[C@@H](O)[C@H](O)CO [galactose]
[4]; dialysis-dependent patient (Savin et al., 2008)
  proteinuria outcome: no improvement of proteinuria
[4]; oral galactose, patient resistant to corticosteroids, immunosuppression and plasmapheresis (De Smet et al., 2009)
  nephrotic syndrome outcome: remission for more than two years

## PXP + rituximab: plasmapheresis (PXP) with adjunctive rituximab infusion in subjects refractory to plasmapheresis
[5]; overall, n = 12
  Proteinuria, Most recent: 7 ± 12.7 g/g
  Proteinuria, Peak: 12.5 ± 12.7 g/g
  Proteinuria, Mean Post ± SD: 6.6 ± 12.5 g/g
  Serum Creatinine, Mean Post ± SD: 2.1 ± 0.88 mg/dL
  Proteinuria, Mean Pre ± SD: 4.4 ± 3.1 g/g
  Serum Creatinine, Mean Pre ± SD: 3 ± 2.7 mg/dL
[5]; overall, n = 10
  Mean Foot Process Effacement, Mean Post ± SD: 21 ± 27%
  Mean Foot Process Effacement, Mean Pre ± SD: 49 ± 32%
[5]; responders, n = 9
  Proteinuria, Last: 1.7 ± 1.2 g/g
  Proteinuria, Peak: 7.6 ± 4.9 g/g
  Proteinuria, Mean Post ± SD: 1.9 ± 1.4 g/g
  Proteinuria, Mean Pre ± SD: 4.1 ± 3.4 g/g
[5]; responders, n = 7
  Mean Foot Process Effacement, Mean Post ± SD: 14 ± 14%
  Mean Foot Process Effacement, Mean Pre ± SD: 34 ± 27%
[5]; responders, n = 12
  Serum Creatinine, Mean Post ± SD: 2.1 ± 0.7 mg/dL
  Serum Creatinine, Mean Pre ± SD: 3 ± 2.96 mg/dL
